Laboratory results as given in patent US12606508B2, “Cannabis extracts and uses thereof” (priority 2020, dated 2026).
“Also recorded” adds a separate entry of the source. Read-outs that look alike come from different tables or passages of the source.

How the values were obtained:
human CB2 receptor = molecular target: T1, human CB2 receptor (Homo sapiens, UniProt P34972); experiment: Radioligand binding assay at human CB2 receptor ([^3H]WIN 55212-2 displacement, Eurofins Discovery)
T1 construct: Eurofins Discovery (contract assay)
T1 sequence (P34972 whole entry): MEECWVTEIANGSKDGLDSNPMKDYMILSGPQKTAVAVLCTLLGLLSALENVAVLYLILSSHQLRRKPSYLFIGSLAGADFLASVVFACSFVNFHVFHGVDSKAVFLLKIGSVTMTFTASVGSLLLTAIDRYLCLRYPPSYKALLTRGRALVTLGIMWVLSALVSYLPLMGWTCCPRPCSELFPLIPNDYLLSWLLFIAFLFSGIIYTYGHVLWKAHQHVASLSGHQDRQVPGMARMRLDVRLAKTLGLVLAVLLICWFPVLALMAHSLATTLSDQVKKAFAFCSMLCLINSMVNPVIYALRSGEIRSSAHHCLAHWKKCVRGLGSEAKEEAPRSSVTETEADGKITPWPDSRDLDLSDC
Method: 2.2.4 Binding affinity at human CB1 and CB2 receptors. The binding affinity of (−)-trans-Δ^9-THCB against purified human CB1 and CB2 receptors was determined in a radioligand binding assay. The capability of the ligand to displace radiolabeled [^3H]
Binding at CB1 and CB2 Receptors. The binding affinity of (−)-trans-Δ^9-THCB against human CB1 and CB2 receptors was determined in a radioligand binding assay performed by Eurofins Discovery. The compound was tested at ten concentrations, ranging from 1 nM to 30 μM, in duplicate. The compound binding was calculated as a % inhibition of the binding of a radioactively labeled ligand specific for each target. […] The results were expressed as a percent inhibition of control specific binding obtained in the presence of the tested compounds using eq. 1.
The IC50 values (concentration causing a half-maximal inhibition of control specific binding) were determined by non-linear regression analysis of the competition curves generated with mean replicate values (eq. 2)^55.
Where Y is the specific binding, A is the left asymptote of the curve, D is the right asymptote f the curve, C is the compound concentration, C50 is the IC50 value and nH is the slope factor. […] The inhibition constants (Ki) were calculated using the Cheng Prusoff equation: […]
3.1.4 Binding affinity at human CB1 and CB2 receptors. […] The binding affinity of (−)-trans-Δ^9-THCP against human CB1 and CB2 receptors was assessed by Eurofins Discovery using a radioligand binding assay. […] Eq. 1 was employed to calculate the percent inhibition of control specific binding obtained in the presence of the tested compounds. […]
Where Y is the specific binding, A is the left asymptote of the curve, D is the right asymptote f the curve, C is the compound concentration, C50 is the IC50 value and nH is the slope factor. […] The inhibition constants (Ki) were determined using the Cheng Prusoff equation (eq. 3): […]

C57BL6/J mice [1] = experiment: Tetrad: open field test (spontaneous/motor activity); type: in vivo; settings: mean±SEM
Method: (§1) Mice (n=4) were treated with Δ^9-THCB (10 and 20 mg/kg) or vehicle (0.9% saline and 0.05% DMSO) by intraperitoneal (i.p.) administration. Mice were evaluated for hypomotility (open field test), hypothermia (body temperature test), antinociceptive (hot plate test), and cataleptic effects (bar test), using the tetrad tests as described in the protocol by Metna-Laurent M. et al.^62 Statistical analysis was performed using the Kruskall-Wallis test and Dunn's post hoc tests.
Open field test. The open field test (OFT) was performed 30 min after drug or vehicle injection. The apparatus was cleaned before each test using a 70% EtOH solution. After randomly assigning naïve mice to a treatment group, the operator started to record animal behaviors, which were stored and analyzed using an automated behavioral tracking system (Smart v3.0, Panlab Harvard Apparatus). Mice were placed in an OFT arena (1×w×h: 44 cm×44 cm×30 cm), and ambulatory activity (total distance travelled in cm), was recorded for 15 min and analyzed.
(§2) Male C57BL6/J mice (7 weeks old; n=5) were treated with Δ^9-THCP (10, 5 and 2.5 mg/kg) or vehicle (1:1:18; ethanol:Kolliphor EL:0.9% saline) by i.p. administration. Mice were evaluated for hypomotility (open field test), hypothermia (body temperature), antinociceptive (hot plate test), and cataleptic (bar test) effects, using the tetrad tests^58. Statistical analysis was performed using the Kruskall-Wallis test and Dunn's post hoc tests.
Openfield. The open field test was used for the evaluation of motor activity. Behavioral assays were performed 30 min after drug (or vehicle) injection. The apparatus was cleaned before each behavioral session by solution of 70% ethanol. Naïve mice were randomly assigned to a treatment group. Behaviors were recorded, stored, and analyzed using an automated behavioral tracking system (Smart v3.0, Panlab Harvard Apparatus). Mice were placed in an OFT arena (1×w×h: 25 cm×25 cm), and ambulatory activity (total distance travelled in centimeter), were recorded for 15 minutes and analyzed.

C57BL6/J mice [2] = experiment: Tetrad: bar test (catalepsy); type: in vivo; settings: mean±SEM
Method: as §1
Bar test. The bar used was a 40 cm long and 0.4 cm wide in diameter glass rod, which was horizontally elevated by 5 cm above the surface. Both forelimbs of the mouse were positioned on the bar and its hind legs on the floor of the cage, ensuring that the animal was not lying down on the floor. The chronometer was stopped when the mouse descended from the bar (i.e., when the two forepaws touched the floor) or after the 10 min cut-off time. Catalepsy was measured as the time duration each mouse held the bar by both his forelimbs (latency for moving in seconds).
as §2
Bar test. The bar test was used for the evaluation of catalepsy. Bar was a 40 cm in length and 0.4 cm in diameter glass rod, which was horizontally elevated by 5 cm above the surface. Both forelimbs of mice were positioned on the bar and its hind legs on the floor of the cage, ensuring that the mouse was not lying down on the floor. The chronometer was stopped when the mouse descends from the bar (i.e., when the two forepaws touched the floor) or when 10 min have elapsed (i.e., cut-off time). Catalepsy was measured as the time duration each mouse held the elevated bar by both his forelimbs (latency for moving in seconds).

C57BL6/J mice [3] = experiment: Tetrad: body (rectal) temperature test; type: in vivo; settings: mean±SEM; for change in rectal temperature: 50 min after administration vs basal, n=4, vehicle 0.53; for change in body temperature: difference to basal temperature, n=5, vehicle 0.40
Method: as §1
Body temperature test. A probe was gently inserted for 1 cm into the mouse rectum after the animal had been immobilized. The probe was washed and cleaned with 70% ethanol and the dried with a paper towel. The body temperature was measured after stabilization of the value in ° C. in basal conditions and at 50 minutes after drug or vehicle administration.
as §2
Body temperature. The mouse was immobilized and the probe gently inserted for 1 cm into the rectum until stabilization of temperature. Between each mouse the probe was cleaned with 70% ethanol and dried with paper towel.

C57BL6/J mice [4] = experiment: Tetrad test, overall cannabimimetic profile; type: in vivo; settings: i.p.
Method: Tetrad test. Male C57BL6/J mice 6-8 weeks (Envigo, Italy) were housed under controlled conditions (12 h light/12 h dark cycle; temperature 20-22 C; humidity 55-60%) with chow and tap water available ad libitum. All surgeries and experimental procedures were approved by the Animal Ethics Committee of University of Campania “L. Vanvitelli,” Naples. Animal care was in compliance with Italian (D.L. 116/92) and European Commission (O.J. of E.C. L358/1 […]) regulations on the protection of laboratory animals. All efforts were made to minimize animal suffering and to reduce the number of animals used. All the experiments were performed in a randomized manner by the same operator blind to pharmacological treatments.
as §1, §2

SMILES | Ki (human CB2 receptor; Cheng Prusoff from IC50, [^3H]WIN 55212-2 radioligand, read-out: hCB2 Ki) | IC50 (human CB2 receptor; displacement of [^3H]WIN 55212-2, ten concentrations 1 nM to 30 μM, duplicate, SD within ±10%, read-out: hCB2 IC50) | open field: distance travelled (C57BL6/J mice [1]; Δ^9-THCB 10 mg/kg i.p., 30 min after injection, 15 min, n=4, vehicle 3283) | open field: distance travelled (C57BL6/J mice [1]; Δ^9-THCB 20 mg/kg i.p., 30 min after injection, 15 min, n=4, vehicle 3283) | bar test: latency for moving from the catalepsy bar (C57BL6/J mice [2]; Δ^9-THCB 10 mg/kg i.p., n=4, vehicle 3.50) | bar test: latency for moving from the catalepsy bar (C57BL6/J mice [2]; Δ^9-THCB 20 mg/kg i.p., n=4, vehicle 3.50) | change in rectal temperature (C57BL6/J mice [3]; Δ^9-THCB 10 mg/kg i.p.) | change in rectal temperature (C57BL6/J mice [3]; Δ^9-THCB 20 mg/kg i.p.) | cannabimimetic profile in the tetrad test (in words) (C57BL6/J mice [4]) | Ki (human CB2 receptor) | open field: distance travelled (C57BL6/J mice [1]; Δ^9-THCP 2.5 mg/kg i.p., n=5, vehicle 6888) | open field: distance travelled (C57BL6/J mice [1]; Δ^9-THCP 5 mg/kg i.p., n=5, vehicle 6888) | open field: distance travelled (C57BL6/J mice [1]; Δ^9-THCP 10 mg/kg i.p., n=5, vehicle 6888) | bar test: latency for moving from the catalepsy bar (C57BL6/J mice [2]; Δ^9-THCP 2.5 mg/kg i.p., 10 min cut-off, n=5, vehicle 15.20) | bar test: latency for moving from the catalepsy bar (C57BL6/J mice [2]; Δ^9-THCP 5 mg/kg i.p., 10 min cut-off, n=5, vehicle 15.20) | bar test: latency for moving from the catalepsy bar (C57BL6/J mice [2]; Δ^9-THCP 10 mg/kg i.p., 10 min cut-off, n=5, vehicle 15.20) | change in body temperature (C57BL6/J mice [3]; Δ^9-THCP 2.5 mg/kg i.p.) | change in body temperature (C57BL6/J mice [3]; Δ^9-THCP 5 mg/kg i.p.) | change in body temperature (C57BL6/J mice [3]; Δ^9-THCP 10 mg/kg i.p.) | dose at which active in three of the four tetrad tests (C57BL6/J mice [4])
CCCCc1cc(O)c2c(c1)OC(C)(C)[C@@H]1CCC(C)=C[C@@H]21 [Δ^9-THCB, (6aR,10aR)-3-butyl-6,6,9-trimethyl-6a,7,8,10a-tetrahydro-6H-benzo[c]chromen-1-ol] | 51 nM | 79 nM | 3220 cm | 3591 cm | 3.0 s | 13.0 s | −0.28 °C | 0.40 °C | partial agonistic activity; also recorded: partial agonist for CB1 receptor | – | – | – | – | – | – | – | – | – | – | –
CCCCCCCc1cc(O)c2c(c1)OC(C)(C)[C@@H]1CCC(C)=C[C@@H]21 [Δ^9-THCP, (6aR,10aR)-3-heptyl-6,6,9-trimethyl-6a,7,8,10a-tetrahydro-6H-benzo[c]chromen-1-ol] | – | – | – | – | – | – | – | – | THC-like cannabimimetic activity; also recorded: miming the properties of full CB1 receptor agonists | 6.2 nM | 4072 cm | 127.5 cm | 166.8 cm | 346.1 s | 493.4 s | 484.5 s | −4.12 °C | −5.28 °C | −7.10 °C | 5 mg/kg
